Results on one substance are retold here after US3962243A (Laboratories Made, S.A., priority 1974, dated 1976).

Series [1] has as its system rat complete brain homogenates. In words: Action on cerebral oxidative activity (oxygen consumption). Particulars: 1 × 10^-^3 and 1 × 10^-^4 M.
The next series concerns bronchial spasm. In words: Bronchial spasmolytic action. Format: in vivo.
The next series concerns mice. In words: Sub-acute and chronic toxicity. The class given is in vivo. Particulars: administration to mice over periods of 2 and 6 months.

For “2-[(2-dimethylaminoethyl) (p-methoxybenzyl)amino]-pyridine 1,2,3,6-tetrahydro-1,3-dimethyl-2,6-dioxopurin-7-acetate”, the “inhibition of the oxygen consumption” value in series [1] is reported as “strong inhibition of the oxygen consumption”. In addition, in the series with bronchial spasm (in vivo), the “duration of activity, bronchial spasmolytic action” value was “over 5 hours”. The “action against bronchial spasm by route” value in the series with bronchial spasm (oral, rectal, intramuscular and intravenous) is listed as “Effective action against bronchial spasm is obtainable by all routes”. Besides, the “active dose, bronchial spasmolytic action” value in the series on bronchial spasm (very small doses) worked out at 6 µg/kg. Also, in the series on mice, the “microscopic or macroscopic organ alteration” value is listed as “No microscopic or macroscopic organ alteration”.
